In patent US20080004272A1, “Compositions and methods for modulating gated ion channels” (PainCeptor Pharma Corporation, priority 2006, published 2008):
Read-outs that look alike come from different tables or passages of the source.

Columns and labels:
ASIC1a = target: T1, ASIC1a (Homo sapiens, UniProt P78348); experiment: Calcium imaging of MES-induced calcium response (FLIPR); type: cell-based; parameters: host or cells: HEK293
T1 sequence (P78348 1-528): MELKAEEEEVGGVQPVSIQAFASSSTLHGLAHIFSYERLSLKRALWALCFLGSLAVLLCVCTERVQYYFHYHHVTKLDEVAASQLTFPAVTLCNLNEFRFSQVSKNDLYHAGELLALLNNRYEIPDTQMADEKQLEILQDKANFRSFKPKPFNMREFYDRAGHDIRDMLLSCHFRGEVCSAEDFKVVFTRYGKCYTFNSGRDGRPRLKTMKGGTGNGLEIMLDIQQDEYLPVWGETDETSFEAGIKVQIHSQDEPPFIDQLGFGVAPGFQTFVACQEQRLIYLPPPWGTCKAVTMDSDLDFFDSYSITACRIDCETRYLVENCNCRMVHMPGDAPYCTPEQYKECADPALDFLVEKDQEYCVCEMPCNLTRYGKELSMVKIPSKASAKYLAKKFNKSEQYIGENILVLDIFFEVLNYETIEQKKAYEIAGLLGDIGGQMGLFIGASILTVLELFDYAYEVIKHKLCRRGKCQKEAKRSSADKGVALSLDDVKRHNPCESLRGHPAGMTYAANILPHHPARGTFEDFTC

[1] = tested on: carrageenan-induced thermal hyperalgesia; experiment: Carrageenan model, thermal hyperalgesia (Hargreaves' assay); type: in vivo; conditions: rat, 10 mg/kg s.c. 30 min prior to carrageenan, tested 2, 3 and 4 h post
Procedure: Acute inflammatory hyperalgesia is induced in rats by unilateral injection of […] of a 3% solution of 1-carrageenan into the plantar surface of the left hind paw 2-4 h prior to testing. Thermal nociceptive thresholds are determined according to the method described elsewhere (Hargreaves et al., 1988). Briefly, through the glass surface, a radiant heat source (8 V, 50 W projector bulb) is focused onto the plantar surface of the hind paw. The rat's paw-withdrawal latency to this stimulus is recorded to the nearest 0.1 s. Each latency score is an average of three trials, which are separated by at least 5 min. In all rats, both the injured and uninjured hind paws are similarly tested, allowing direct comparisons between inflamed and non-inflamed paws.
FIG. 5 illustrates the effect of Compound 203 (10 mg/kg s.c.) on the thermal hyperalgesia (observed in the Hargreaves' assay) resulting from an acute paw inflammation caused by the intraplantar injection of 150 μl of a 3% solution of λ-carrageenan. Compound 203 was given 30 min prior to carrageenan injection and thermal hyperalgesia was tested 2, 3, and 4 h post carrageenan injection.

| SMILES | IC50 (ASIC1a) | Effect on thermal hyperalgesia [1] | IC50 (ASIC1a; ASIC1a expressing HEK293 cells, MES-induced calcium response, read-out: IC50 (FLIPR)) |
| --- | --- | --- | --- |
| CN1CCc2c(-c3ccccc3)cc(C#N)c(N)c2C1 [Compound 203, 8-Amino-2-methyl-5-phenyl-1,2,3,4-tetrahydro-isoquinoline-7-carbonitrile] | < 10 µM | reduced the thermal hyperalgesia to level not significant to the control paw | – |
| COc1ccc(F)cc1-c1cc(C#N)c(N)c2c1CCN(C)C2 [Compound 206, 8-Amino-5-(5-fluoro-2-methoxy-phenyl)-2-methyl-1,2,3,4-tetrahydro-isoquinoline-7-carbonitrile] | – | – | 20 to 40 µM |
